Patent publication US20120027819A1, “Medical Devices Incorporating a Bioactive and Methods of Preparing Such Devices” (priority 2006, published 2012)

What was measured:
[1] = Exposure of coated ureteral stent to water / aqueous environment (FIGS. 8, 10); type: physicochemical
Excerpt: (§1) An approximately 0.6% solution of bupivacaine having a tertiary amine in the non-ionic form (formula (2a) above) in dichloromethane was loaded into a syringe mounted onto a syringe pump and connected to a tube that carried the solution to an ultrasonic nozzle (Model 06-05108—Sono-Tek Co., Poughkeepsie, N.Y. 12547.) A nozzle was 6 mm diameter, 11 mm long and used with a nominal frequency of 120 kHz. Air was purged from the solution line and the spray nozzle primed with the solution. The coating chamber was purged with nitrogen to attain an oxygen concentration below 100 ppm. The solution was sprayed onto ureteral stent substrates 20 to 280 mm long (polyurethane double pigtail soflex ureteral stent, Cook Incorporated (Bloomington, Ind.)). A smooth, uniform coating was observed. Control stents were coated with the same concentration of Bupivacaine.HCl using the above coating method.
FIGS. 8-11 depict photomicrographs of the coatings showing the uniformity and tenacity of the non-ionic coatings, in contrast to the water-soluble ionic coatings. […] FIG. 9 depicts a relatively rough, crystalline coating 91 of bupivacaine-HCl on a ureteral stent 90, on the left, and the same stent after a one-minute ex vivo exposure to a pig ureter.
FIG. 11 then depicts the same type of stent 110 with a coating 114 of the non-ionic form of bupivacaine after 24 hours in an ex vivo test with a pig ureter.

[2] = cited from earlier work
[3] = Elution of bupivacaine from spray-coated ureteral stents in aqueous buffers (Example 1, FIG. 7); type: physicochemical; details: for time to release/elute from coated stent (in words): ionic form coated on stent, aqueous environment, same conditions, hydrochloride
Excerpt: as §1
The stents were placed in solutions at different pH values to test the elution of bupivacaine over time. […] Acetic acid/sodium acetate was used for the pH 4.5 buffer, 0.1M phosphate-buffered solution (PBS) for the pH 7.0 buffer, and sodium carbonate for the pH 9.5 buffer.

[4] = cited from earlier work; remark: listed apart in the source

| state of coating after dipping in water ([1]; dipped in water for one minute) | time to release/elute from coated stent (in words) [3] | time to release/elute from coated stent (in words) ([3]; listed as bupivacaine.HCl) | state of coating after aqueous exposure ([1]; exposed to an aqueous environment for several days) | period over which release from ureteral stent occurs ([3]; non-ionic form coated on ureteral stent, buffers pH 4.5, 7.0, 9.5) | Structure (SMILES) | water solubility (in words) [2] | solubility ([2]; base or non-ionic form, water) | effect of eluting solution pH on elution rate ([3]; increasing the pH from 4.5 to 9.5) | pKa ([4]; Table 1, acidic proton of proton binding site) | pKa of acidic proton of proton binding site ([4]; in water) |
| --- | --- | --- | --- | --- | --- | --- | --- | --- | --- | --- |
| substantially dissolved | within a matter of minutes | eluted fully within minutes | – | – | CCCCN1CCCCC1C(=O)Nc1c(C)cccc1C.Cl (stereo not drawn) [Bupivacaine.HCl, 1-butyl-N-(2,6-dimethylphenyl)-2-piperidinecarboxamide hydrochloride] | soluble in water | – | – | – | – |
| – | – | – | – | – | C[C@@H]1C[C@H]2[C@@H]3CCC4=CC(=O)C=C[C@]4(C)[C@@]3(F)[C@@H](O)C[C@]2(C)[C@@]1(O)C(=O)CO [Dexamethasone] | practically insoluble in water | – | – | – | – |
| – | – | – | virtually no effect on the coating | about 12 days | CCCCN1CCCCC1C(=O)Nc1c(C)cccc1C (stereo not drawn) [bupivacaine, 1-Butyl-N-(2,6-dimethylphenyl)-2-piperidinecarboxamide] | only very slightly soluble in water | about 0.2 mg/mL | slightly slowed the rate of bupivacaine elution | 8.09 | about 8 |
